Source: patent US8530460B2, “Azetidine derivatives” (Boehringer Ingelheim International GmbH, priority 2011, dated 2013)

Target: human ACC2 (Homo sapiens (Human), UniProt O00763)
Assay: ACC2 assay (spectrophotometric 384 well assay, NADH-linked coupled lactate dehydrogenase/pyruvate kinase)
Assay type: biochemical
Settings: not given
Protocol: Spectrophotometric 384 Well Assay
Malonyl CoA formation by acetyl CoA carboxylases is stoichometrically linked to the consumption of ATP. ACC2 activity is measured in a NADH-linked kinetic method measuring ADP generated during the ACC reaction using a coupled lactate dehydrogenase/pyruvate kinase reaction.
For biological testing, a human ACC2 construct which lacks the 128 amino acids at the N-terminus for increased solubility (nt 385-6966 in Genbank entry AJ575592) is cloned. The protein is then expressed in insect cells using a baculoviral expression system. Protein purification is performed by anion exchange.
All compounds are dissolved in dimethyl sulfoxide (DMSO) to a concentration of 10 mM.
Assay reactions are then carried out in 384-well plates, with hACC2 in an appropriate dilution and at final assay concentrations (f.c.) of 100 mM Tris (pH 7.5), 10 mM trisodium citrate, 25 mM KHCO3, 10 mM MgCl2, 0.5 mg/ml BSA, 3.75 mM reduced L-glutathione, 15 U/ml lactate dehydrogenase, 0.5 mM phosphoenolpyruvate, 15 U/ml pyruvate kinase, compounds at different concentrations at final DMSO concentrations of 1%.
The enzymatic reaction is then started by addition of a mixture of NADH, acetyl Coenzyme A (both 200 μM f.c.) and ATP (500 uM f.c.). The decrease of the optical density (slope S) is then determined at 25° C. at a wavelength of 340 nm over 15 minutes in a spectrophotometric reader.
Each assay microtiter plate contains wells with vehicle instead of compound as controls for the non-inhibited enzyme (100% CTL; ‘HIGH’) and wells without acetyl-CoA as controls for non-specific NADH degradation (0% CTL; ‘LOW’).
The slope S is used for calculation of % CTL=(S(compound)−S(‘LOW’))/(S(‘HIGH’)—S(‘LOW’))*100. Compounds will give values between 100% CTL (no inhibition) and 0% CTL (complete inhibition).
For IC50 value determination, the sample slope in the presence of the test compound after subtraction of the low controls (S(compound)−S(‘LOW’)) are used.
An IC50 value is derived from the compound slopes at different dosages after subtraction of the low controls (S(compound)−S(‘LOW’)) by non-linear regression curve fitting (equation y=(A+((B−A)/(1+((C/x)^D))))).

Sequence of human ACC2 (O00763 129-2458): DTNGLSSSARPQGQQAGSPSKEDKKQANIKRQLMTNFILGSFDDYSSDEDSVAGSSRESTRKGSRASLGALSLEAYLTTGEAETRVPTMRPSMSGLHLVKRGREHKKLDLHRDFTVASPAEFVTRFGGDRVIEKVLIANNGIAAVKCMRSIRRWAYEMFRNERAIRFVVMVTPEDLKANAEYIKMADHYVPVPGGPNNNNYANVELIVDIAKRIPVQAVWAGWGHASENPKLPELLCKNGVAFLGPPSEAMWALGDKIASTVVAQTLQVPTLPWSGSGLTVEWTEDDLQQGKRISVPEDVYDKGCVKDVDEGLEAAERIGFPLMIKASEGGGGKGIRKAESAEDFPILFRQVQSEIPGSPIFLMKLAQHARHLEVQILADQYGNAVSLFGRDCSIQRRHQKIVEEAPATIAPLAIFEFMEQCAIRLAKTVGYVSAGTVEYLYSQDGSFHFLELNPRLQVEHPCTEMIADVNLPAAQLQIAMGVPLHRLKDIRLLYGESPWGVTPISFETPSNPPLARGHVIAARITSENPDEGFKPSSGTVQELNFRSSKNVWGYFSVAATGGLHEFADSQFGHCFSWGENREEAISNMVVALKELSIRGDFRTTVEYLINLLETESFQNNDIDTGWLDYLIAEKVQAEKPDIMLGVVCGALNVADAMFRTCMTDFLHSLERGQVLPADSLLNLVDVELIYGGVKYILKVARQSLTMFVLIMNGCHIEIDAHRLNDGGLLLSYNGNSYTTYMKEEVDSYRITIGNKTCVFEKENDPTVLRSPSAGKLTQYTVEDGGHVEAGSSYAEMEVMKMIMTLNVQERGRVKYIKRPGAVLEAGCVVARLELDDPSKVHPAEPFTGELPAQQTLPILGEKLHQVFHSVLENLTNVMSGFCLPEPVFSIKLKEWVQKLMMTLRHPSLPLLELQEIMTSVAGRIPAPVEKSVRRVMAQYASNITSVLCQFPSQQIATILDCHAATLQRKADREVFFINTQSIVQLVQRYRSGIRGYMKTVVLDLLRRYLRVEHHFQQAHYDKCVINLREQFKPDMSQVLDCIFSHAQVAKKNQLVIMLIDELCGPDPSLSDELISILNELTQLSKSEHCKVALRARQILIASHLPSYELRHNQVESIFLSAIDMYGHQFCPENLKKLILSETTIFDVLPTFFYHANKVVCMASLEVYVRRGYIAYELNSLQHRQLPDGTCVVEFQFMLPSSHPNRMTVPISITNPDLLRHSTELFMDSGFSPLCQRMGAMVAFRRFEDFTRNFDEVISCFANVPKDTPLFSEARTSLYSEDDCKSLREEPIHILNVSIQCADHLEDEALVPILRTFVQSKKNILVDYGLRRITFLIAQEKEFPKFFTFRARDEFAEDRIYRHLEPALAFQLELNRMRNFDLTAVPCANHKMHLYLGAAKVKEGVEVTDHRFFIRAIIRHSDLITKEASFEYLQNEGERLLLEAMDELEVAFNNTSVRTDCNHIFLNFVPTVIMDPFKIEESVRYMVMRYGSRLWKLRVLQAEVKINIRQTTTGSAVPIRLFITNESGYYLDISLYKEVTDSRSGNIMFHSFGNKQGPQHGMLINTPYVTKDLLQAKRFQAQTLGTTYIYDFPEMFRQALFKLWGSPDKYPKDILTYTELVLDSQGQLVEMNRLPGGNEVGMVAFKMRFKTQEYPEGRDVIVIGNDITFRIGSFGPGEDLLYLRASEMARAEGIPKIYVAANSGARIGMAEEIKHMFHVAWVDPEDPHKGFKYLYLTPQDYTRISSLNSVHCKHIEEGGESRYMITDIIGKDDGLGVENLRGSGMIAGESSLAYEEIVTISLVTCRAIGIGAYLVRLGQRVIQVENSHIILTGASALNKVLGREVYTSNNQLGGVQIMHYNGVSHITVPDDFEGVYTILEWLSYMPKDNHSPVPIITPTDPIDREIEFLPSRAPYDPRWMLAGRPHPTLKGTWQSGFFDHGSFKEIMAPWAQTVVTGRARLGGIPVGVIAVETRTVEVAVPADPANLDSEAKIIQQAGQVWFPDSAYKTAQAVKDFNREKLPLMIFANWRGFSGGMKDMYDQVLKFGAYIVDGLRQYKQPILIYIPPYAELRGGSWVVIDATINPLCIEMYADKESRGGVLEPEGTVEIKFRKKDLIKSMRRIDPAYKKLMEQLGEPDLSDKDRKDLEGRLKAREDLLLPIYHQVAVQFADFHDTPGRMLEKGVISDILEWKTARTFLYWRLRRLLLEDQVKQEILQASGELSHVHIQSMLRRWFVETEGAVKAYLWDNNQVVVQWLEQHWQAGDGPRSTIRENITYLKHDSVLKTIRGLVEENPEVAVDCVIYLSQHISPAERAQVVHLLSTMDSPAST

Compound | IC50
CC(=O)N[C@@H](C)c1ccc(OC2CN(c3ccc(OCC4CC4)nc3)C2)cc1 [Example 2.1, (S)—N-(1-(4-(1-(6-(Cyclopropylmethoxy)Pyridin-3-yl)azetidin-3-yloxy)phenyl)ethyl)-acetamide] | 880 nM

Same assay, conditions: hACC2 construct lacking 128 N-terminal amino acids; 25° C., 340 nm, 15 minutes

Compound | IC50
CC(=O)N[C@@H](C)c1ccc(OC2CN(c3nccc(C(F)(F)F)n3)C2)cc1 [Example 4.16] | 470 nM
CC(=O)N[C@@H](C)c1ccc(OC2CN(c3ccc4oc(C)nc4c3)C2)cc1 [Example 1.27] | 1750 nM
CCCOc1ccc(N2CC(Oc3ccc([C@H](C)NC(=O)CF)cc3)C2)c(OC)c1 [Example 8.2] | 2370 nM
CC(=O)N[C@@H](C)c1ccc(OC2CN(c3ccc4c(c3)OC(F)(F)O4)C2)cc1 [Example 1.26] | 740 nM
COc1cc(-c2cnc(N3CC(Oc4ccc([C@H](C)NC(C)=O)cc4)C3)nc2)ccn1 [Example 6.2] | 1740 nM
CC(=O)N[C@@H](C)c1ccc(OC2CN(c3ccc(OC4CC4)cc3C)C2)cc1 [Example 1.44] | 250 nM
COc1cc(OCC2CC2(F)F)ccc1N1CC(Oc2ccc([C@H](C)NC(C)=O)cc2)C1 (stereo partly drawn) [Example 1.61] | 2540 nM
CCCOc1ccc(N2CC(Oc3ccc([C@H](C)NC(C)=O)cc3)C2)c(C)c1 [Example 2.5] | 170 nM
CCOc1cccc(N2CC(Oc3ccc([C@H](C)NC(C)=O)cc3)C2)n1 [Example 4.11] | 3620 nM
CC(=O)N[C@@H](C)c1ccc(OC2CN(c3ccc(OCC4CC4)cc3F)C2)cc1 [Example 2.2] | 60 nM
CC(=O)N[C@@H](C)c1ccc(OC2CN(c3ccnc(C(F)(F)F)c3)C2)cc1 [Example 4.29] | 1170 nM
CC(=O)N[C@@H](C)c1ccc(OC2CN(c3c(F)cc(OC4CC4)cc3F)C2)cc1 [Example 1.45] | 130 nM
CC(=O)N[C@@H](C)c1ccc(OC2CN(c3nccc(C(F)(F)F)c3F)C2)cc1 [Example 4.10] | 370 nM
CC(=O)NC(C)c1ccc(OC2CN(c3ccc(OC4CC4)cc3)C2)cc1 (stereo not drawn) [Example 1.3] | 530 nM
CCCOc1ccc(N2CC(Oc3ccc([C@H](C)NC(=O)N(C)C)cc3)C2)cc1 [Example 1.31] | 190 nM
CCOC(=O)c1cc(C#N)c(N2CC(Oc3ccc([C@H](C)NC(C)=O)cc3)C2)nc1C(F)(F)F [Example 4.36] | 1140 nM
CC(=O)N[C@@H](C)c1ccc(OC2CN(c3ccc4ccccc4n3)C2)cc1 [Example 4.2] | 2040 nM
CC(=O)NC(C)c1ccc(OC2CN(c3ccc(OC4CCC4)cc3)C2)cc1 (stereo not drawn) [Example 1.4] | 130 nM

Compound | IC50
CC(=O)N[C@@H](C)c1ccc(OC2CN(c3ncc(C(F)(F)F)cc3F)C2)cc1 [Example 4.31] | 190 nM
CC(=O)N[C@@H](C)c1ccc(OC2CN(c3cccc(C(F)(F)F)n3)C2)cc1 [Example 4.21] | 410 nM
CCOc1cccc(N2CC(Oc3ccc([C@H](C)NC(C)=O)cc3)C2)c1 [Example 1.30] | 670 nM
CCOc1ccc(N2CC(Oc3ccc([C@H](C)NC(C)=O)cc3)C2)cc1 [Example 1.19] | 90 nM
CC(=O)NC(C)c1ccc(OC2CN(c3cnc(OC4CCC4)nc3)C2)cc1 (stereo not drawn) [Example 1.10] | 670 nM
CCOc1ccc(N2CC(Oc3ccc([C@H](C)NC(C)=O)cc3)C2)c(C#N)n1 [Example 1.58] | 1390 nM
CCOc1ccc(N2CC(Oc3ccc(CC(C)NC(C)=O)cc3)C2)cc1 (stereo not drawn) [Example 1.12] | 5340 nM
CCCOc1ccc(N2CC(Oc3ccc([C@H](C)NC(C)=O)cc3)C2)cc1 [Example 1.13] | 70 nM
CC(=O)N[C@@H](C)c1ccc(OC2CN(c3ccnc(Oc4cncnc4)c3)C2)cc1 [Example 2.9] | 10600 nM
COc1cc(OC(C)C)ccc1N1CC(Oc2ccc([C@H](C)NC(C)=O)cc2)C1 [Example 1.37] | 2270 nM
C[C@H](NC(=O)C1CC1)c1ccc(OC2CN(c3ncc(Br)cn3)C2)cc1 [Example 3.6] | 3880 nM
CC(=O)N[C@@H](C)c1ccc(OC2CN(c3ccc(C4(C#N)CC4)cn3)C2)cc1 [Example 4.12] | 1060 nM
CC(=O)N[C@@H](C)c1ccc(OC2CN(c3cncc(C(F)(F)F)c3)C2)cc1 [Example 4.40] | 1050 nM
CC(=O)N[C@@H](C)c1ccc(OC2CN(c3nc(C(F)(F)F)ccc3F)C2)cc1 [Example 4.43] | 530 nM
CC(=O)N[C@@H](C)c1ccc(OC2CN(c3ncc(C4CC4)cn3)C2)cc1 [Example 5.1, (S)—N-(1-(4-(1-(5-Cyclopropylpyrimidin-2-yl)azetidin-3-yloxy)phenyl)ethyl)acetamide] | 170 nM
CCCOc1ccnc(N2CC(Oc3ccc([C@H](C)NC(C)=O)cc3)C2)c1 [Example 2.12] | 4500 nM
CC(=O)N[C@@H](C)c1ccc(OC2CN(c3cccc(C(F)(F)F)c3)C2)cc1 [Example 1.56] | 150 nM

More lines, now with the values ahead:

IC50 | Compound
300 nM | CCOc1ccc(N2CC(Oc3ccc([C@H](C)NC(=O)C4(C(F)(F)F)CC4)cc3)C2)cc1 [Example 8.21]
930 nM | CCOc1ccc(N2CC(Oc3ccc([C@H](C)NC(=O)C4CC(OC)C4)cc3)C2)cc1 (stereo partly drawn) [Example 8.44]
1000 nM | CCOc1ccc(N2CC(Oc3ccc([C@H](C)NC(=O)C4(C#N)CC4)cc3)C2)cc1 [Example 8.12]
740 nM | CCOc1ccc(N2CC(Oc3ccc([C@H](C)NC(=O)CC(F)(F)F)cc3)C2)cc1 [Example 8.18]
550 nM | CCOc1ccc(N2CC(Oc3ccc([C@H](C)NC(=O)c4cnc(NC(C)=O)s4)cc3)C2)cc1 [Example 8.32]
430 nM | CCCOc1ccc(N2CC(Oc3ccc([C@H](C)NC(=O)c4cncs4)cc3)C2)c(OC)c1 [Example 8.4]
370 nM | CCOc1ccc(N2CC(Oc3ccc([C@H](C)NC(=O)c4cnc(NC(=O)CO)s4)cc3)C2)cc1 [Example 8.10]
810 nM | CCOc1ccc(N2CC(Oc3ccc([C@H](C)NC(=O)c4ccns4)cc3)C2)cc1 [Example 8.34]
10600 nM | CC(=O)N[C@@H](C)c1ccc(OC2CN(c3cc(OC(C)C)ncn3)C2)cc1 [Example 11.2]
190 nM | CCOc1ccc(N2CC(Oc3ccc([C@H](C)NC(=O)c4cnco4)cc3)C2)cc1 [Example 8.33]
6010 nM | CCCOc1cc(N2CC(Oc3ccc([C@H](C)NC(C)=O)cc3)C2)ncn1 [Example 11.1, (S)—N-(1-(4-(1-(6-Propoxypyrimidin-4-yl)azetidin-3-yloxy)phenyl)ethyl)acetamide]
700 nM | CCOc1ccc(N2CC(Oc3ccc([C@H](C)NC(=O)C(C)C)cc3)C2)cc1 [Example 8.16]
1190 nM | CCOc1ccc(N2CC(Oc3ccc([C@H](C)NC(=O)C4CCOC4)cc3)C2)cc1 (stereo partly drawn) [Example 8.46]
1150 nM | CCOc1ccc(N2CC(Oc3ccc([C@H](C)NC(=O)C4(C)CC4)cc3)C2)cc1 [Example 8.9]
480 nM | CCOc1ccc(N2CC(Oc3ccc([C@H](C)NC(=O)C4CCC4)cc3)C2)cc1 [Example 8.20]
3160 nM | CCOc1ccc(N2CC(Oc3ccc([C@H](C)NC(=O)c4csc(NC(C)=O)n4)cc3)C2)cc1 [Example 8.35]
440 nM | CCNC(=O)N[C@@H](C)c1ccc(OC2CN(c3ccc(OCC)cc3)C2)cc1 [Example 10.4]
7700 nM | CCCOc1ccc(N2CC(Oc3ccc([C@H](C)NC(=O)C4CC4)cc3)C2)c(OC)c1 [Example 8.1, (S)—N-(1-(4-(1-(2-Methoxy-4-propoxyphenyl)azetidin-3-yloxy)phenyl)ethyl)cyclopropanecarboxamide]
